Several values for one entry are separate records, joined by “and”; a condition that tells them apart may be missing. Identical values can stand only once. Numbers after ± are expanded uncertainties.
Tests used:
[1] = Liquid; for mass density: 101.33 kPa
[2] = refractive index (Na D-line) (dimensionless); conditions: 293.15 K; 101.33 kPa; Liquid; Standard Abbe refractometry

SMILES	mass density ([1]; 293.15 K)	vapor or sublimation pressure ([1]; 333.15 K) [kPa]	vapor or sublimation pressure ([1]; 363.15 K) [kPa]	refractive index [2]	mass density ([1]; 303.15 K) [kg/m3]
Cc1ccccc1 [toluene]	866.78 ± 0.19 kg/m3	18.56 ± 0.56	54.49 ± 0.72	1.496 ± 0.0004	–
CCCCCCCCCCC [undecane]	740.11 ± 0.28 kg/m3 and 740.11 ± 0.36 kg/m3	–	–	1.4162 ± 0.0004	732.93 ± 0.36
